# Experimental data: patent US11612634B2 (priority 2020, dated 2023)
# “Also recorded” adds a separate entry of the source.
# Legend:
# [1] = tested on: bone cancer pain (BCP) rat model; assay: Analgesic effect on mechanical hyperalgesia (PWT) in BCP rat model; assay type: in vivo; conditions: for analgesic effect on BCP, low dose: repeated
# Method: The tumor cell implantation (TCI) surgery was performed according to the method proposed by Medhurst S J, et al (Medhurst S. J., Walker K., Bowes M., Kidd B. L., Glatt M., Muller M., et al. (2002). A rat model of bone cancer pain. Pain 96 129-140). Walker 256 mammary gland carcinoma cells were transferred from a liquid nitrogen tank, thawed quickly in a 37° C. water bath and loaded into a centrifugal tube. Then the cells were added with an appropriate amount of normal saline and centrifuged at 1200 r/min for 6 min. The supernatant was discarded, and the cells were washed again, and suspended with phosphate buffered saline (PBS) to 1×10^7/mL. Young female SD rats, weighing 90-100 g, were intraperitoneally injected with 0.5 mL of mammary gland carcinoma cells, and a large amount of ascites occurred after 6-7 days of the injection. 10 mL of ascites was extracted and centrifuged for 5 min. The precipitate was washed with normal saline and then diluted with PBS to 1×10^5/mL. The rats were anesthetized with 10% chloral hydrate and shaved, and a 1-cm incision was made in the upper half skin of the right tibia to expose the bone surface with a minimal damage to the surrounding muscle or blood vessels. The bone was pierced with a 4 # needle at 5 mm below a knee joint distal to an epiphysial growth plate, and the needle was inserted to a depth so that it can be pushed into the medullary cavity. The needle was then removed, and a 10 […] needle containing cells to be injected was inserted into the medullary cavity, determining whether the needle was located in the medullary cavity by withdrawal. 5 mL (1×10^5/mL) of cancer cells were injected into the medullary cavity, and whether there are cells or blood leaking out from the injection site was observer.
# The needle was kept in the medullary cavity for 1 min and then was withdrawn to enable the full cell spreading, and the injection site was pressed by a cotton swab for 1 min and closed with bone cement. The wound was sutured and treated with penicillin powder. The PWT was measured 3 days after modeling, where those rat models with a significant lower PWT were considered as successful BCP rat models, and the undesirable models were removed.
# (S1) Healthy adult SD rats, weighing 180-220 g, were selected, numbered on tails and transferred to the same cage (15 rats in total).
# (S2) The rats were maintained in the measuring room for 2 h for adaptation.
# The measurement was repeated 3-5 times for each rat with an interval of 5-10 min, and the results were averaged. The rats were allowed to rest for several hours to build a BCP model.
# Those unsuccessful models were removed, and on the 22nd day after modeling, the successfully-established models were randomly divided into 3 groups, where the groups A-C were subcutaneously with normal saline, […], respectively. 1.5 h later, the PWT of the right hind paw of each group was measured. Each rat was measured 3-5 times with an interval of 5-10 min, and the PWTs were averaged as the practical PWT (unit: g). The drug administration was performed twice a day (at 9:30 a.m. and 4:30 p.m.) for consecutive 4 days, and the PWT of each group before and after administration was measured in the morning every day. […]
# [2] = tested on: Carr-induced inflammatory pain rat model; assay: Analgesic effect on mechanical hyperalgesia (PWT) in Carr-induced inflammatory pain rat model; assay type: in vivo
# Method: The mechanical hyperalgesia of rats was measured by 38500-pressure application measurement (PAM) system (Ugo Basile Biological Research Apparatus, Comerio-Varese, Italy), which consisted of a hand-held part and an integrated electronic part. The hand-held part was a force sensor which was designed according to a Randall-Selitto algesimeter. The integrated electronic part was configured to automatically record a maximum PWT applied to the left hind paw of the rats.
# The Carr-induced inflammatory pain model was built according to a published method (Alessandri-Haber N, et al. Neurosci. Vol 29(19), pp. 6217-6288, 2009) for evaluating an analgesic effect of drugs administered by intraplantar injection. […] Those rats with a PWT lower than 100 gf were considered to be a desired Carr-induced inflammatory pain model, those rats with the PWT higher than 100 gf was removed.
# (S1) A total of 18 healthy adult SD rats, weighing 180-220 g, were selected, numbered on tails and placed in the same cage.
# (S2) The rats were maintained in a measuring room for 2 h for adaptation.
# The measurement was repeated 3-5 times for each rat with an interval of 5-10 min. The results of multiple PWT measurements were averaged as the Baseline (BL) (unit: g). After that, 6 μL of 1 wt % Carr was intradermally injected into the plantar surface of the hind paw to build an inflammatory pain rat model.
# (S4) The PWT of the left hind paw of each rat was measured 1 h after the Carr injection. Rats with a higher inflammatory threshold and rats with a lower inflammatory threshold were mixed and equally divided into three groups (group A, group B and group C), each for six rats, such that any two groups of rats had similar distribution of inflammatory threshold. The groups A, B and C were intradermally injected with normal saline, 5 mg/kg of morphine and 2 μg/kg of the short peptide P10581, respectively, at the plantar surface of the left hind paw. 1 h later, the PWT of the left hind paw of the rats in each group was measured 3-5 times at an interval of 5-10 min. The multiple PWT measurement results were averaged as the practical PWT (unit: g). Then the drug was injected every 2 h according to the above-mentioned administration dose and time, and the corresponding PWT was recorded (six injections in total).
# (1) 24 healthy adult SD rats, weighing 180-220 g, were selected, reinjected with 6 μL of a 1 wt % Carr solution and divided into 4 groups randomly and averagely (i.e., groups A-D). The group A was injected with normal saline; the group B was intradermally injected with 0.1 μg/kg of the short peptide P10581 through the plantar surface of the left hind paw; the group C was intradermally injected with 0.1 μg/kg of the short peptide P10581 and then with 5 mg/kg of morphine 30 min later through the plantar surface of the left hind paw; and the group D was intradermally injected with 0.05 μg/kg of the short peptide P10581, and then with 5 mg/kg of morphine 30 min later through the plantar surface of the left hind paw. 1 h later, the PWT of each group was recorded when the mechanical withdrawal of the left hind paw occurred, and each rat was measured 3-5 times at an interval of 5-10 min.
# (2) The drug was injected every 2 h according to the above-mentioned administration dose and time (seven times in total), and the PWT was recorded.
# (S1) A total of 20 healthy adult SD rats (half male and half female), weighing 180-220 g, were selected, numbered on tails and transferred to the same cage.
# (S4) The PWT of the left hind paw of each rat was measured 1 h after the Carr injection.
# [3] = 14.4 μg/kg, twice a day, 4 days
# [4] = 2 μg/kg i.d. plantar, every 2 h, six injections
Compound,"analgesic effect / tolerance after repeated injection ([1]; rat, in vivo)","analgesic effect on BCP ([1]; rat, in vivo)","analgesic effect / tolerance after repeated injection ([2]; rat, in vivo)","analgesic effect on BCP, low dose ([1]; 0.2 μg/kg S.C.)","analgesic effect on BCP, low dose ([1]; 0.4 μg/kg S.C.)","analgesic effect on BCP [1, 3]","analgesic tolerance after repeated injection [1, 3]","analgesic effect on hyperalgesia, low dose ([2]; 0.1 μg/kg i.d., every 2 h, seven injections)","duration of analgesic effect ([2]; 2 μg/kg i.d. plantar, every 2 h)","analgesic effect on Carr-induced inflammatory pain threshold (PWT) [2, 4]","analgesic tolerance after repeated injection [2, 4]"
"CN1CC[C@]23c4c5ccc(O)c4O[C@H]2[C@@H](O)C=C[C@H]3[C@H]1C5 [morphine, reference compound]",disappeared at day 4; also recorded: completely lost the analgesic effect on BCP,significantly alleviated,gradually declined analgesic effect with the increase in the number of injections,–,–,–,–,–,–,–,–
WKCNPNDDKCCRPKLKC [P10581],–,–,–,no analgesic effect,no analgesic effect on BCP,significantly alleviate the BCP,without developing the analgesic tolerance,no relieving effect on the hyperalgesia in rats,more than 12 h,completely reverse the Carr-induced inflammatory pain threshold,without developing the analgesic tolerance
